Experimental findings from ChEMBL document CHEMBL1146420, “Isolation and characterization of 1,3-dimethylisoguanine from the Bermudian sponge Amphimedon viridis” (J Nat Prod, 1997) are described below.

This test in a line: Cytotoxicity against human ovarian cancer cells. It is filed as functional, cell-based. The following applies: Cancer cell lines.

SMILES strings stand for the structures. Values after ≈ are worked out from the molar mass of the structure shown.

The compound `Cn1c(=N)c2nc[nH]c2n(C)c1=O` showed a 50% inhibitory concentration (IC50) of 2.1 µg/mL (≈ 11.7 µM).
